# Measurements: ChEMBL document CHEMBL1126105, “Dihydroxynitrobenzaldehydes and hydroxymethoxynitrobenzaldehydes: synthesis and biological activity as catechol-O-methyltransferase inhibitors” (J Med Chem, 1992)
# Experiments:
# [1] = target: T1, Catechol O-methyltransferase (Sus scrofa) (UniProt Q99028); test: Compound was evaluated for reversible inhibition of Catechol O-methyltransferase with variable AdoMet and saturating catechol as substrate (uncompetitive inhibition)
# T1 sequence (whole entry): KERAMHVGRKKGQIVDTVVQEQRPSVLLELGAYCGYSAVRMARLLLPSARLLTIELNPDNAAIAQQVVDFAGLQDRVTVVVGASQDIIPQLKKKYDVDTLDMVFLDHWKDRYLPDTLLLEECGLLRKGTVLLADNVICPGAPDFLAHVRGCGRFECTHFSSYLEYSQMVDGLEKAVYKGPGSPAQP
# [2] = target: T1, Catechol O-methyltransferase (Sus scrofa)
# Description: (§1) Compound was evaluated for reversible inhibition of Catechol O-methyltransferase with saturating AdoMet and variable catechol as substrate (mixed inhibition)
# [3] = target: T1, Catechol O-methyltransferase (Sus scrofa); remark: listed apart in the source
# Description: as §1
# [4] = target: T2, Catechol O-methyltransferase (Sus scrofa, UniProt Q99028); test: In vitro inhibition of Catechol-O-methyltransferase (COMT) from isolated partially purified pig liver enzyme
# T2 sequence (Q99028 whole entry): T1 sequence (whole entry)
# [5] = target: T1, Catechol O-methyltransferase (Sus scrofa); remark: listed apart in the source
# [6] = target: T2, Catechol O-methyltransferase; test: Compound was evaluated for reversible inhibition of Catechol O-methyltransferase with saturating AdoMet and variable catechol as substrate (Non-competitive inhibition)
# [7] = target: T2, Catechol O-methyltransferase; test: Compound was evaluated for reversible inhibition of Catechol O-methyltransferase with variable AdoMet and saturating catechol as substrate (uncompetitive inhibition)
# [8] = target: T1, Catechol O-methyltransferase (Sus scrofa); test: Compound was evaluated for reversible inhibition of COMT with saturating AdoMet and variable catechol as substrate (mixed inhibition)
Structure (SMILES),KIs [1],KIs [2],KII [3],IC50 [4],KII [5],Ki [6],Ki [7],KII [8]
O=Cc1ccc([N+](=O)[O-])c(O)c1O,538 nM,0.478 µM,145 nM,1.5 µM,–,–,–,–
O=Cc1c([N+](=O)[O-])ccc(O)c1O,–,4.77 µM,909 nM,10 µM,–,–,–,–
"O=Cc1cc(O)c(O)c([N+](=O)[O-])c1 [3,4-DIHYDROXY-5-NITROBENZALDEHYDE]",–,0.816 µM,138 nM,2 µM,1.38e-07 µM,–,–,–
O=Cc1cc([N+](=O)[O-])cc(O)c1O,7770 nM,1.2 µM,231 nM,2.1 µM,–,–,–,–
O=Cc1cc(O)c(O)cc1[N+](=O)[O-],–,2.69 µM,921 nM,8.5 µM,–,–,–,–
COc1c(O)cc(C=O)cc1[N+](=O)[O-],–,–,–,34 µM,–,17.2 µM,13.5 µM,–
O=Cc1ccc(O)c(O)c1[N+](=O)[O-],678 nM,0.497 µM,–,1.5 µM,–,–,–,168 nM
